Values of other authors as cited in US11643424B2, “Cardiopathy-reducing phosphodiester lipids” (Signpath Pharma, Inc., priority 2018, dated 2023).

System: K+ current
Conditions: cited from earlier work

With `CCCCc1oc2ccc(NS(C)(=O)=O)cc2c1C(=O)c1ccc(OCCCN(CCCC)CCCC)cc1` [Dronedarone] as the compound, how does the “reduction of K+ current” value read?
The value was 69%.
